According to patent US20250084067A1, “PYRAZOLE-SUBSTITUTED CYCLOPENTANOL ESTER DERIVATIVE AND USE THEREOF” (CHIA TAI TIANQING PHARMACEUTICAL GROUP CO., LTD., priority 2022, published 2025):
Read-outs that look alike come from different tables or passages of the source.

How the values were obtained:
CDK2 CycE1 kinase = CDK2 CycE1 kinase (Homo sapiens (Human), UniProt P24941); assay: Determination of inhibitory activity against CDK2 CycE1 kinase; assay type: biochemical
Experimental: CDK2 CycE1 kinase solution (concentration: 0.015 ng/μL) was added to assay wells at 6 μL/well, and different compounds dissolved in DMSO were added to the assay wells separately using a nanoliter pipettor, such that the final concentrations of the compounds were 300 nM to 0.07 nM. The wells were set in duplicate, and a control well was set. After incubation of the above system for 30 min, ATP (concentration: 50 μM or 5000 μM) was mixed with ULight-Myelin Basic Protein Peptide substrate (manufacturer: PerkinElmer, concentration: […]) at a ratio of 1:1, and the mixture was added to the assay wells at 4 μL/well. The resulting mixture was left to react at room temperature for 2 h, and then 5 μL of EDTA was added to terminate the reaction, followed by addition of 5 μL of a detection antibody (manufacturer: PerkinElmer, concentration: 8 nM). The mixture was incubated at room temperature for 1 h.

CDK2/CycA2 kinase = CDK2/CycA2 kinase (Homo sapiens (Human), UniProt P24941); assay: Determination of inhibitory activity against CDK2/CycA2 kinase; assay type: biochemical
Experimental: The wells were set in duplicate, and a control well was set. […] The resulting mixture was left to react at room temperature for 2 h, and then 5 µL of EDTA was added to terminate the reaction, followed by addition of 5 μL of a detection antibody (manufacturer: PerkinElmer, concentration: 8 nM). The mixture was incubated at room temperature for 1 h.

[1] = read-out: CDK2/CycE1 10 μM ATP (kinase) IC50
[2] = read-out: CDK2/CycA2 10 μM ATP (kinase) IC50

IC50 (CDK2 CycE1 kinase; 10 μM ATP) [nM]	IC50 (CDK2/CycA2 kinase; 10 μM ATP) [nM]	SMILES	IC50 (CDK2 CycE1 kinase; [1]) [nM]	IC50 (CDK2/CycA2 kinase; [2]) [nM]
< 10	< 10	CC(C)NC(=O)O[C@@H]1CC[C@H](c2cc(Nc3ccc(S(N)(=O)=O)c(Cl)n3)n[nH]2)C1 [Example 52]	–	–
< 10	< 10	CC(C)NC(=O)O[C@@H]1CC[C@H](c2cc(Nc3ccc(S(C)(=O)=O)cc3)n[nH]2)C1 [Example 54]	–	–
10 to 50	10 to 50	CC(C)NC(=O)O[C@@H]1CC[C@H](c2cc(NC3CCN(S(=O)(=O)c4cnn(C)c4)CC3)n[nH]2)C1 [Example 60]	–	–
< 10	< 10	CC(C)NC(=O)O[C@@H]1CC[C@H](c2cc(Nc3ccc(S(N)(=O)=O)cc3)n[nH]2)C1 [Example 65]	–	–
10 to 50	10 to 50	CC(C)NC(=O)O[C@@H]1CC[C@H](c2cc(Nc3ccc(S(=O)(=O)N(C)C)cn3)n[nH]2)C1 [Example 69]	–	–
< 10	10 to 50	CC(C)NC(=O)O[C@@H]1CC[C@H](c2cc(Nc3ccc4c(c3)S(=O)(=O)CC4)n[nH]2)C1 [Example 75]	–	–
< 10	< 10	[2H]C([2H])([2H])C([2H])(NC(=O)O[C@@H]1CC[C@H](c2cc(Nc3ccc(S(N)(=O)=O)c(Cl)n3)n[nH]2)C1)C([2H])([2H])[2H] [Example 77]	–	–
< 10	< 10	[2H]C([2H])([2H])C([2H])(NC(=O)O[C@@H]1CC[C@H](c2cc(Nc3ccc4c(c3)CS(=O)(=O)C4)n[nH]2)C1)C([2H])([2H])[2H] [Example 78]	–	–

Further lines, the compound ahead of its results:

SMILES	IC50 (CDK2 CycE1 kinase; 10 μM ATP) [nM]	IC50 (CDK2/CycA2 kinase; 10 μM ATP) [nM]	IC50 (CDK2 CycE1 kinase; [1]) [nM]	IC50 (CDK2/CycA2 kinase; [2]) [nM]
CNC(=O)O[C@@H]1CC[C@H](c2cc(Nc3ccc4c(c3)CS(=O)(=O)C4)n[nH]2)C1 [Example 53]	< 10	< 10	–	–
COc1cc(Nc2cc([C@H]3CC[C@@H](OC(=O)NC(C)C)C3)[nH]n2)ccc1NS(C)(=O)=O [Example 55]	< 10	< 10	–	–
CC(C)NC(=O)O[C@@H]1CC[C@H](c2cc(Nc3ccc4c(c3)CNS4(=O)=O)n[nH]2)C1 [Example 56]	< 10	< 10	–	–
CC(C)NC(=O)O[C@@H]1CC[C@H](c2cc(Nc3ccc(N4CCCC4=O)c(Cl)n3)[nH]n2)C1 [Example 57]	–	–	< 10	< 10
CC(C)NC(=O)O[C@@H]1CC[C@H](c2cc(Nc3ccc(N=S(C)(C)=O)cc3)n[nH]2)C1 [Example 59]	10 to 50	10 to 50	–	–
CC(C)NC(=O)O[C@@H]1CC[C@H](c2cc(Nc3ccc(S(C)(=N)=O)cc3)n[nH]2)C1 (some centres unmarked) [Example 61]	< 10	< 10	–	–
CC(C)NC(=O)O[C@@H]1CC[C@H](c2cc(Nc3ccc(S(=N)(=O)C4CC4)cc3)n[nH]2)C1 (some centres unmarked) [Example 62]	< 10	< 10	–	–
C[C@H](NC(=O)O[C@@H]1CC[C@H](c2cc(Nc3ccc4c(c3)CS(=O)(=O)C4)n[nH]2)C1)C(F)(F)F [Example 63]	–	–	< 10	< 10
C[C@@H](NC(=O)O[C@@H]1CC[C@H](c2cc(Nc3ccc4c(c3)CS(=O)(=O)C4)n[nH]2)C1)C(F)(F)F [Example 64]	–	–	< 10	< 10
CC(C)NC(=O)O[C@@H]1CC[C@H](c2cc(Nc3ccc(S(N)(=O)=O)c(C(F)(F)F)c3)n[nH]2)C1 [Example 66]	< 10	< 10	–	–
O=C(NC1CC1)O[C@@H]1CC[C@H](c2cc(Nc3ccc4c(c3)CS(=O)(=O)C4)n[nH]2)C1 [Example 67]	< 10	< 10	–	–
CC(C)NC(=O)O[C@@H]1CC[C@H](c2cc(Nc3ccc(S(=O)(=O)NC4CC4)cn3)n[nH]2)C1 [Example 68]	< 10	< 10	–	–
CC(C)NC(=O)O[C@@H]1CC[C@H](c2cc(Nc3ccc(S(C)(=N)=O)c(F)c3)n[nH]2)C1 (some centres unmarked) [Example 70]	–	–	< 10	< 10
CC(C)NC(=O)O[C@@H]1CC[C@H](c2cc(Nc3ccc(NS(C)(=O)=O)c(OC(F)F)c3)n[nH]2)C1 [Example 71]	–	–	< 10	< 10
CC(C)NC(=O)O[C@@H]1CC[C@H](c2cc(Nc3ccc(C#N)cc3)n[nH]2)C1 [Example 72]	< 10	< 10	–	–
CC(C)NC(=O)O[C@@H]1CC[C@H](c2cc(Nc3ccc(S(C)(=N)=O)c(Cl)c3)n[nH]2)C1 (some centres unmarked) [Example 73]	–	–	< 10	< 10
CC(C)NC(=O)O[C@@H]1CC[C@H](c2cc(Nc3ccc(NS(C)(=O)=O)c(C(F)F)c3)n[nH]2)C1 [Example 74]	–	–	< 10	< 10
